Assay [1] relates to KPC pancreatic cancer cells. Description: Treatment of orthotopic pancreatic tumor model. Format: in vivo, mice. Particulars: 25 days; cGAMP-MPs three doses at days 0, 4, 8; cGAMP-S single high dose (30 μg) with EPs. The method, then:
A small incision was made to exteriorize the spleen and pancreas of C57BL/6 female mice. 5×10^5 KPC cells in 50 μL of PBS and Matrigel (1:1 mixture by volume) were injected into the tail of the pancreas. cGAMP-MPs (10 μg of cGAMP-S, 5 PLGA-1 microdevices containing 10 μg of cGAMP and 5 PLGA-2 microdevices containing 10 μg of cGAMP) or 1×cGAMP-S plus EPs (30m of cGAMP-S, 5 each of empty PLGA-1 and PLGA-2 microdevices) in 50 μL MC solution were also injected into the tail of the pancreas. The wound was then closed by an autoclip wound clip system. Mice were euthanized 25 days after tumor inoculation. The tumors were isolated and weighted by a balance. Metastasis to lungs was evaluated by H&E staining of lung sections.

For a further assay, the system named is IRF7 mRNA. The assay is described as follows: qPCR of interferon-stimulated genes in B16F10 tumors. It is filed as in vivo, mice. To be noted: tumors at day 16; cGAMP-MPs single injection, cGAMP-S three injections. The procedure: (§1) Mice bearing B16F10 tumors were treated with the following 4 experimental groups (n=8): untreated, 1×EPs, 3×cGAMP-S, and 1×cGAMP-S plus cGAMP-MPs, respectively (FIG. 4A). Tumors were collected at day 16 post tumor inoculation and cut into 50-100 mg small pieces in a 1.5 mL microcentrifuge tube. The tumors were lysed in radioimmunoprecipitation assay (RIPA) buffer (Sigma-Aldrich), homogenized, and centrifuged at 20130 rcf for 10 min. The protein content in the supernatant was quantified using a bicinchoninic acid protein assay kit (Thermo Fisher Scientific, MA, USA). Equal amounts of proteins (20 μg) were separated on a 4 to 15% gradient SDS-polyacrylamide gel (Bio-Rad, Hercules, CA) and electro-transferred to nitrocellulose membrane. The membranes were then blocked with 5% milk in tris-buffered saline supplemented with 0.05% Tween 20 and further incubated with GAPDH monoclonal antibody (Invitrogen, CA, cat. no. MA5-27912), phospho-TBK1/NAK (Ser172) (D52C2) Rabbit mAb (Cell Signaling Technology, cat. no. 5483S), or phospho-IRF-3 (S396) Rabbit mAb (Cell Signaling Technology, cat. no. 4947S) at 4° C. overnight. […]
(§2) For q-PCR experiments, total RNAs were extracted from tumors by RNeasy Kit (Qiagen, Inc.) according to manufacturer's protocol. […] Samples were analyzed in triplicates.

The subject of another assay is CXCL10 mRNA. The assay is described as above. It is filed as in vivo, mice. Particulars: tumors at day 16; cGAMP-MPs single injection, cGAMP-S three injections. The procedure:
as §1, §2

In assay [2] the test system is apoptotic cells in B16F10 tumors. Description: TUNEL staining of tumor sections. It is filed as in vivo, mice. Particulars: cGAMP-MPs single injection, cGAMP-S three injections. The method, then: Tumor sections (5 μm) were fixed with 4% paraformaldehyde, blocked with 3% bovine serum albumin, and permeabilized with 0.1% Triton X-100 in PBS. The tumor sections were then incubated with anti-CD8 alpha antibody (1:200, Abcam, cat. no. ab217344) at 4° C. overnight and goat anti-rabbit IgG H&L (Alexa Fluor® 488) (1:1000, Abcam, cat. no. ab150077) secondary antibody at room temperature for 1 h. Apoptotic tumor cells were stained using a in situ cell death detection kit (Roche) according to the manufacturer's instructions. Images were acquired on a Nikon A1R Ultra-Fast Spectral Scanning Confocal Microscope (Shinagawa, Tokyo).

A further assay deals with interleukin-6 (IL-6). The assay is described as follows: Systemic IL-6 response of orthotopic 4T1 tumor-bearing mice. Format: in vivo. Particulars: day 1 to 7; cGAMP-MPs single injection, cGAMP-S four injections.
For the next assay, the system named is 4T1 lung metastasis. The assay is described as follows: Treatment of metastatic 4T1 model. Format: in vivo, mice. Particulars: day 34. The procedure:
2×10^5 4 T1 cells were injected into the mammary fat pad. Seven days after injection, tumor-bearing mice were divided into 3 experimental groups: untreated, 3×cGAMP-S, and 1×cGAMP-S plus cGAMP-MPs (10m of cGAMP-S, 5 PLGA-1 microdevices containing 10 μg of cGAMP, and 5 PLGA-2 microdevices containing 10 μg of cGAMP). The primary tumor was surgically removed at day 18 to extend survival. Mice were euthanized at day 34. Lung tissues were stained with India ink and fixed in Fekete's solution. Metastatic foci on the lung were counted under a microscope. Unstained lung tissues were fixed in formalin and stained by H&E. Quantitation of metastatic tumor cells of H&E stained sections was performed using an Aperio ImageScope using tuned positive pixel count algorithm. Briefly, input hue value in the positive pixel count algorithm was tuned to positively select normal lung tissues in red to orange range, while the tumors were negatively selected in purple. Percentage area of tumor metastasis per total lung area was calculated by the number of negative counts (purple)/the number of total counts (purple, orange, and red)×100%. Three H&E sections per lung at different depths were analyzed and averaged to obtain the percentage of tumor over the lung for one mouse. Four or five mice were analyzed for each group.

Consider `Nc1nc2c(ncn2[C@@H]2O[C@@H]3COP(=O)(O)O[C@H]4[C@@H](O)[C@H](n5cnc6c(N)ncnc65)O[C@@H]4COP(=O)(O)O[C@H]3[C@H]2O)c(=O)[nH]1` [cGAMP-S, 3′3′-cGAMP], for which, in assay [1], the metastasis to lungs result is on record as “did not show benefits” and the “primary tumor growth in the pancreas” value was “did not show benefits”. In the assay on IRF7 mRNA, the “IRF7 mRNA level, fold over untreated” value came out at 66.5 fold. In addition, the “CXCL10 mRNA level, fold over untreated” value in the assay with CXCL10 mRNA was 7.2 fold. For the same compound, the “apoptotic cells (TUNEL)” value in assay [2] is recorded as “greater abundance of apoptotic cells”. For the same compound, in the assay on interleukin-6 (IL-6), the “systemic IL-6 levels” value is recorded as “elevated”. Further, the “number of metastatic foci on lung surfaces” value in the assay on 4T1 lung metastasis (cGAMP-MPs single injection day 7, cGAMP-S days 7, 11, 15) is on record as “significantly decreased”. Besides, the “relative area of tumors in the lungs” value in the assay on 4T1 lung metastasis (compared to untreated) is “reduced”.

(Values after patent US12390537B2, “Compositions of polymeric microdevices and methods of use thereof in cancer immunotherapy” (Massachusetts Institute of Technology, priority 2020, dated 2025).)
